Results: patent publication US9422357

Conditions: disulfide bond; 38-membered ring

Substance S1C(disialo)•N19C(GlcNAc)-SRIF28 has a ring closure, yield after HPLC of 59%.
